{
  "source": "patent US20250129047A1",
  "about": "“ISOQUINOLINE DERIVATIVES AS MUTANT EGFR MODULATORS AND USES THEREOF” (NEWAVE PHARMACEUTICAL INC., priority 2021, published 2025)",
  "details_in_all_cases": "apparent IC50; 1.0 mM ATP or ATP Km; FL-Peptide 22 substrate; 25° C.",
  "key": {"EGFR L858R": {"target": "T1, EGFR L858R (Homo sapiens, UniProt P00533, L858R)", "T1 construct": "purchased SignalChem E10-122BG", "T1 sequence (P00533 25-1210 L858R)": "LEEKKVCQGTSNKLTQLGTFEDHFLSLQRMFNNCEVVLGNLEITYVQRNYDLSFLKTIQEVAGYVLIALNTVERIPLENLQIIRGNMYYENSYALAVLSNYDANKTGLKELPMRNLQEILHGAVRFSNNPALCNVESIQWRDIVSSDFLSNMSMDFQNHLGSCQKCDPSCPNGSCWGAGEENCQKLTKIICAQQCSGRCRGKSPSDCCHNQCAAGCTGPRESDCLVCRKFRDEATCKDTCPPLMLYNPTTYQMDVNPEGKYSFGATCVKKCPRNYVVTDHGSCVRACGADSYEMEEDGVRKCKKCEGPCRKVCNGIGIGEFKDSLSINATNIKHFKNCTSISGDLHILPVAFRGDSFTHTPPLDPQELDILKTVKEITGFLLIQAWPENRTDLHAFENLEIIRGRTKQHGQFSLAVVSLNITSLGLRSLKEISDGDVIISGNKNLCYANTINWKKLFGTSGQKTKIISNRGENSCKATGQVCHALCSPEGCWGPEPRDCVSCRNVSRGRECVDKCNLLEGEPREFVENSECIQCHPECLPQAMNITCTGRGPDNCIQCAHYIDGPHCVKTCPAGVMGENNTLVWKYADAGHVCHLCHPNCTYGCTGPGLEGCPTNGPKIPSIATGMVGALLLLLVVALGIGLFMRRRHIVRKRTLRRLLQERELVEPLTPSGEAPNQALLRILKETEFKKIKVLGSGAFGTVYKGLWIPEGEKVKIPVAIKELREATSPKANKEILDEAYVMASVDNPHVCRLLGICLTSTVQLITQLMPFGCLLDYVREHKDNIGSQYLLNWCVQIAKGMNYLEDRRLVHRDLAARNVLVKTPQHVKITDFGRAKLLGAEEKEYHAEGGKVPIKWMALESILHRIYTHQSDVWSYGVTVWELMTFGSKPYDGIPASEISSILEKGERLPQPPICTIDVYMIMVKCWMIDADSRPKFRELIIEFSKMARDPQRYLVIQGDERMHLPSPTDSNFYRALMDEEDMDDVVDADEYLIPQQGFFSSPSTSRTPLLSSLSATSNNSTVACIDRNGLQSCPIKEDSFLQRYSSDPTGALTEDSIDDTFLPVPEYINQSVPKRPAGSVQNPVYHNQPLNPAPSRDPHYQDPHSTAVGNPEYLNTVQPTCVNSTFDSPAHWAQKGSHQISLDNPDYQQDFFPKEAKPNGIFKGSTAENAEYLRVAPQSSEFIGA", "assay": "Biochemical EGFR inhibition assay (Caliper mobility shift), EGFR L858R", "protocol": "(§1) Inhibitory effects of the compounds of the disclosure were measured in biochemical assays that measure the phosphorylation activity of EGFR enzyme phosphorylates 2.5 micromolar 5-FAM-EEPLYWSFPAKKK-CONFF peptide substrate (FL-Peptide 22, PerkinElmer, 760366) in the presence of adenosine-5′-triphosphate (ATP) and varying concentrations of the test compound in 100 mM 2-[4-(2-hydroxyethyl)piperazin-1-yl]ethanesulfonic acid (HEPES), pH 7.5, 10 mM MgCE. 0.015% Brij-35, 1 mM dithiothreitol (DTT), 1.0% dimehylsulfoxide (DMSO). Assays were performed at 1.0 mM ATP or at ATP Km of the EGFR enzymes. Reactions proceeded until between 10% to 20% total peptides were phosphorylated at room temperature (25° C.) and were terminated with 35 mM 2,2′,2″,2″-(ethane-1,2-diyldinitrilo)tetraacetic acid (EDTA). Product was detected using the Caliper mobility shift detection method where the phosphorylated peptide (product) and substrate were electrophoretically separated and measured. Percent activity was plotted against log concentration of compound and points to generate an apparent IC50. […]"}, "[1]": {"target": "T2, EGFR (d746-750) T790M C797S (Homo sapiens, UniProt P00533, C797S/DEL746-750/T790M)", "T2 construct": "purchased SignalChem E10-122UG", "T2 sequence (P00533 with tags, fused parts or gaps DEL746-750/T790M/C797S limits assumed)": "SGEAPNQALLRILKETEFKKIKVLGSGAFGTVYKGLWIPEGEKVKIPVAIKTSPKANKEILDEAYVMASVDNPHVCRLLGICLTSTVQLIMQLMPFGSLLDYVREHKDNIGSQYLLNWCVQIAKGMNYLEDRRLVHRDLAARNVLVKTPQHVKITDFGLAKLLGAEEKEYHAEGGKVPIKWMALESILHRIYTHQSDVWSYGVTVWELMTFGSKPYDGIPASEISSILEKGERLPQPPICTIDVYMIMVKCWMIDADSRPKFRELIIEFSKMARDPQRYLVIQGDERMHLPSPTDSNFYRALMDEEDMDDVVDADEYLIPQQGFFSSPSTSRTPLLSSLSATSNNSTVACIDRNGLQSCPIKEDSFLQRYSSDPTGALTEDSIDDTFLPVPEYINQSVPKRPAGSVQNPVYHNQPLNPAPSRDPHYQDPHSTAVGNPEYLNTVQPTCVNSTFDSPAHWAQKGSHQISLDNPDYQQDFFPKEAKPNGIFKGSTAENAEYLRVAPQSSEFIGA", "assay": "Biochemical EGFR inhibition assay (Caliper mobility shift), EGFR d746-750 T790M C797S", "protocol": "as §1"}, "EGFR L858R T790M": {"target": "EGFR L858R T790M (Homo sapiens, UniProt P00533, L858R/T790M)", "sequence (P00533 25-1210 T790M/L858R)": "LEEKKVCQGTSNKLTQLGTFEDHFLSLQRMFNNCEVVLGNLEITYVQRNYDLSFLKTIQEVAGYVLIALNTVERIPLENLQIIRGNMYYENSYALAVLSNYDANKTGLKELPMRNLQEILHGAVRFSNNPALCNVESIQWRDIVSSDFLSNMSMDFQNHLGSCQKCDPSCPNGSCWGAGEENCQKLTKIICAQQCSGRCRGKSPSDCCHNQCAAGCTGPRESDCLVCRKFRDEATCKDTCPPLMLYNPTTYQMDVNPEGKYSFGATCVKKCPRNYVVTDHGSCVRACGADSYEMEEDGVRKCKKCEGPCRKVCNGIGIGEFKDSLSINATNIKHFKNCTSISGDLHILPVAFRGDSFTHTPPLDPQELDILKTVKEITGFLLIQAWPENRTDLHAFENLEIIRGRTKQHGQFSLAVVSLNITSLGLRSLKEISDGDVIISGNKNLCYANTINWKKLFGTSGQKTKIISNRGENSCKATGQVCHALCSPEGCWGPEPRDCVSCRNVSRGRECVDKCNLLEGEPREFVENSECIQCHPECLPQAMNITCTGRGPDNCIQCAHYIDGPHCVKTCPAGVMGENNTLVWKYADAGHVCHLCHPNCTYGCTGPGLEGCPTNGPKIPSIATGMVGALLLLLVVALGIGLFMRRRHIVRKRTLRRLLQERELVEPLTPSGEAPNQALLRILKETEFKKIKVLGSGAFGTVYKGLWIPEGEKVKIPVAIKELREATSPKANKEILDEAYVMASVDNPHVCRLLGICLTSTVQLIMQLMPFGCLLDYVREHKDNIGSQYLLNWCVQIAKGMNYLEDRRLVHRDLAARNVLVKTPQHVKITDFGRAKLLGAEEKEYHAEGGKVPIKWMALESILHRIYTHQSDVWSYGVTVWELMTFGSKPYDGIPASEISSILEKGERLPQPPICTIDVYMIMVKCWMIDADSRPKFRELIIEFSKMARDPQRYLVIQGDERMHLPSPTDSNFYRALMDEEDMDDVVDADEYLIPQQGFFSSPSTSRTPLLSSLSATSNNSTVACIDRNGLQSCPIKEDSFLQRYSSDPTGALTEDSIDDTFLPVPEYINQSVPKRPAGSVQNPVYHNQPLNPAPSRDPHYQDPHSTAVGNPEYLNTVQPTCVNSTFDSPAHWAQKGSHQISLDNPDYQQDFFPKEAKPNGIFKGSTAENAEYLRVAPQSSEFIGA", "assay": "Biochemical EGFR inhibition assay (Caliper mobility shift), EGFR L858R T790M", "protocol": "as §1"}, "EGFR d746-750 T790M": {"target": "EGFR d746-750 T790M (Homo sapiens, UniProt P00533, DEL746-750/T790M)", "sequence (P00533 with tags, fused parts or gaps DEL746-750/T790M limits assumed)": "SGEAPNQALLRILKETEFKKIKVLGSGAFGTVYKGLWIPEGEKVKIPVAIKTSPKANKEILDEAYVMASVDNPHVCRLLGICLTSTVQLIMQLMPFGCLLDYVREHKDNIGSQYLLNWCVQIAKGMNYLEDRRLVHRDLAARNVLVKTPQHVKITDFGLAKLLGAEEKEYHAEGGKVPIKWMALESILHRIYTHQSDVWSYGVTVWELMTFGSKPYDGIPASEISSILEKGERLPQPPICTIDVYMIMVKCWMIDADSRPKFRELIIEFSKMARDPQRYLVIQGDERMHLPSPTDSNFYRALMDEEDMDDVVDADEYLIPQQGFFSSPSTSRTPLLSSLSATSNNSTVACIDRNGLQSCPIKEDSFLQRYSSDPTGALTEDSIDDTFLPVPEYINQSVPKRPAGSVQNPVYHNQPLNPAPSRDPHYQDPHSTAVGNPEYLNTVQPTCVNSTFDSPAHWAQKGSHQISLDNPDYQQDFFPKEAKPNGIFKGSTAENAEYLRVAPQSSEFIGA", "assay": "Biochemical EGFR inhibition assay (Caliper mobility shift), EGFR d746-750 T790M", "protocol": "as §1"}, "EGFR (L858R T790M C797S)": {"target": "T3, EGFR (L858R T790M C797S) (Homo sapiens, UniProt P00533, C797S/L858R/T790M)", "T3 construct": "purchased SignalChem E10-122VG", "T3 sequence (P00533 25-1210 T790M/C797S/L858R)": "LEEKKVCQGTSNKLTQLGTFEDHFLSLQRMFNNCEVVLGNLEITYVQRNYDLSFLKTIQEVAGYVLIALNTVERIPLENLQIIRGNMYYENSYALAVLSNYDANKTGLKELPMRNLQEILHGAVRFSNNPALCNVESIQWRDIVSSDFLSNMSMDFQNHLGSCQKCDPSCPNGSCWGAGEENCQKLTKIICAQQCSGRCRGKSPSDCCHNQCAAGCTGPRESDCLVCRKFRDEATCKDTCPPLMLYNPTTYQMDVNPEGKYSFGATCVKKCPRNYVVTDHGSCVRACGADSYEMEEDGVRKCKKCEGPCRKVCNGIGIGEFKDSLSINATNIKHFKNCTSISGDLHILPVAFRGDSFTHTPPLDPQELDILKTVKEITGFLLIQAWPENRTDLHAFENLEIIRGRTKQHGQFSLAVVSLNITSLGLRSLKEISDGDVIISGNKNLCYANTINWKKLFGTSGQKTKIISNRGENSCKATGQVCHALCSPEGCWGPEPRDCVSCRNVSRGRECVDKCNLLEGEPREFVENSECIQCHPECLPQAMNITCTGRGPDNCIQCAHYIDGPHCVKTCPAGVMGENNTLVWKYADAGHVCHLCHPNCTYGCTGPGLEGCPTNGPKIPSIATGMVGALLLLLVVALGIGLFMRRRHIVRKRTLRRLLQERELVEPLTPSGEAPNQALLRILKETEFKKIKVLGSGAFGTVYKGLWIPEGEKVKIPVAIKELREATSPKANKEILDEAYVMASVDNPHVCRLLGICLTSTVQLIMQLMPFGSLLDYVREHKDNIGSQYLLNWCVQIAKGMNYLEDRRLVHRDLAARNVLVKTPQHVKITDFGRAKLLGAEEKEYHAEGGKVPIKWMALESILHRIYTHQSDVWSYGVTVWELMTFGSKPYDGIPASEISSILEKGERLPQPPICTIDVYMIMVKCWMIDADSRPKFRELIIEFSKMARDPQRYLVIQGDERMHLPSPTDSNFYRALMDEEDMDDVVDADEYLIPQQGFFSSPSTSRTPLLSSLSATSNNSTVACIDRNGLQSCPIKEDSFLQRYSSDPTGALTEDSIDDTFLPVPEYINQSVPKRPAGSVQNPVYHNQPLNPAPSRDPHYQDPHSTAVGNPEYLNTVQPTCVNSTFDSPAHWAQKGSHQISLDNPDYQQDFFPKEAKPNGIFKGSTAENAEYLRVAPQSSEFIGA", "assay": "Biochemical EGFR inhibition assay (Caliper mobility shift), EGFR L858R T790M C797S", "protocol": "as §1"}},
  "data": [
    {"compound": "C=CC(=O)N1CCC[C@H]1c1ccc(N2C[C@H](CS(C)(=O)=O)[C@H]2C)c2cnc(Nc3ccnc(N4CC[C@@H](OC)[C@@H](F)C4)n3)cc12", "note": "[Example 2, 1-[(2S)-2-[3-({2-[(3S,4R)-3-fluoro-4-methoxypiperidin-1-yl]pyrimidin-4-yl}amino)-8-[(2R,3S)-3-(methanesulfonylmethyl)-2-methylazetidin-1-yl]isoquinolin-5-yl]pyrrolidin-1-yl]prop-2-en-1-one]", "values": [
      {"measurement": "IC50", "setting": "EGFR L858R", "result": 100000, "unit": "pM"},
      {"measurement": "IC50", "setting": "[1]", "result": 2300, "unit": "pM"}
    ]},
    {"compound": "C=CC(=O)N1CCC[C@@H]1c1ccc(N2C[C@H](CS(C)(=O)=O)[C@H]2C)c2cnc(Nc3ccnc(N4CC[C@@H](OC)[C@@H](F)C4)n3)cc12", "note": "[Example 3, 1-[(2R)-2-[3-({2-[(3S,4R)-3-fluoro-4-methoxypiperidin-1-yl]pyrimidin-4-yl}amino)-8-[(2R,3S)-3-(methanesulfonylmethyl)-2-methylazetidin-1-yl]isoquinolin-5-yl]pyrrolidin-1-yl]prop-2-en-1-one]", "values": [
      {"measurement": "IC50", "setting": "EGFR L858R", "result": 1500, "unit": "pM"},
      {"measurement": "IC50", "setting": "EGFR L858R T790M", "result": 290, "unit": "pM"},
      {"measurement": "IC50", "setting": "EGFR d746-750 T790M", "result": 880, "unit": "pM"},
      {"measurement": "IC50", "setting": "EGFR (L858R T790M C797S)", "result": 690, "unit": "pM"},
      {"measurement": "IC50", "setting": "[1]", "result": 150, "unit": "pM"}
    ]}
  ]
}
